Data on eleven compounds can be found in publication PMC5587527, “A fragment-based approach leading to the discovery of a novel binding site and the selective CK2 inhibitor CAM4066” (Bioorganic & Medicinal Chemistry, 2017).

For one test, the target named is T1, CK2α (Homo sapiens, UniProt P68400).
T1 sequence (P68400 whole entry): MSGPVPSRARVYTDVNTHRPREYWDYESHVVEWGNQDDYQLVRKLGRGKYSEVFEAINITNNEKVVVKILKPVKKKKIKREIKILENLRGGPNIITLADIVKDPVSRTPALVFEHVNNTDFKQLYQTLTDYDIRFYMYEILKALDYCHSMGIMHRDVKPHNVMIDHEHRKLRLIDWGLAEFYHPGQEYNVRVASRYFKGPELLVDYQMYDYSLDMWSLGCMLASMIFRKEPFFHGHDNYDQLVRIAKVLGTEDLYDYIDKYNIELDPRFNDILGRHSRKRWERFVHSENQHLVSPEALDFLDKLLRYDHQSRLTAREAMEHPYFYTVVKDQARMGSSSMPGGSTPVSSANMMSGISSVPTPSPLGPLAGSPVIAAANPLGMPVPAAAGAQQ
Assay: not given
The conditions noted are these: from ITC Kd.
`O=C(O)CC(=O)NCCCNCc1ccc(-c2ccccc2)c(Cl)c1` [Compound 20] yielded a ligand efficiency of 0.19.

As for `COC(=O)CC(=O)NCCCNCc1ccc(-c2ccccc2)c(Cl)c1.Cl` [Compound 19], the ligand efficiency was 0.23.

A further test has as its target T1, CK2α. Nature of the test: biochemical. To be noted: read-out: % Inhibition at 500 μM.
Usually inhibition stands for the change of the read-out against control, counted positive when it falls. With `CC(=O)NCCCNCc1ccc(-c2ccccc2)c(Cl)c1` [Compound 15], the inhibition at 500 µM was 39 ± 3%.

In the case of `NCCCCNCc1ccc(-c2ccccc2)c(Cl)c1` [Compound 14], the inhibition at 500 µM is 18 ± 2%.

As for `CCCNCc1ccc(-c2ccccc2)c(Cl)c1` [Compound 12], the inhibition at 500 µM is 33 ± 5%.

With `CS(=O)(=O)NCCCNCc1ccc(-c2ccccc2)c(Cl)c1` [Compound 18], the inhibition at 500 µM was 51 ± 10%.

Consider `NC(=O)CCNCc1ccc(-c2ccccc2)c(Cl)c1` [Compound 16], for which the inhibition at 500 µM stood at 16 ± 6%.

In the case of `O=C(O)CC(=O)NCCCNCc1ccc(-c2ccccc2)c(Cl)c1` [Compound 20], the inhibition at 500 µM is 20 ± 4%.

Take `COC(=O)CC(=O)NCCCNCc1ccc(-c2ccccc2)c(Cl)c1.Cl` [Compound 19]: the inhibition at 500 µM came out at 46 ± 2%.

For the compound `CC(=O)NCCNCc1ccc(-c2ccccc2)c(Cl)c1` [Compound 17], the inhibition at 500 µM was 12 ± 4%.

`CCNCc1ccc(-c2ccccc2)c(Cl)c1` [Compound 11]: the inhibition at 500 µM was found to be 23 ± 6%.

On to `OCCCNCc1ccc(-c2ccccc2)c(Cl)c1` [Compound 13], for which the inhibition at 500 µM is 47 ± 5%.

On to `CNCc1ccc(-c2ccccc2)c(Cl)c1` [Compound 10], for which the inhibition at 500 µM was 44 ± 12%.
